From US11096952B2, “Chemicals and methods to prevent and treat TGF-beta mediated activation of fibroblasts to reduce and treat cancer and fibrosis” (Board of Supervisors of Louisiana State University and …, priority 2016, dated 2021)

Experiments:
[1] = system: TGF-β-induced fibronectin expression; assay: Western blot of TGF-β-induced fibronectin expression in WPMY-1 fibroblasts; type: cell-based, human; details: for TGF-β-induced fibronectin expression, intracellular Ca2+ modulators (western blot): WPMY-1, 2.5-10 μM, 5 ng/ml TGF-β, 24 hours
Method: (§1) Inhibitors of CAF Differentiation. A. WPMY-1 cells were plated into each well of 4-chamber slice (for IF), or (C) in a 24 well plate (for western blot analysis). After cell attachment, vehicle or 5 ng/ml TGF-β was added into each well and incubated for 24 h in a 37° C. in a humidified incubator containing 5% CO2. For fluorescence detection (A), cells were fixed and stained with antibody detecting fibronectin and/or stained with DAPI to detect the nuclei. Protein was extracted with boiling Lamaelli buffer for WB (C) and blots were probed with anti-fibronectin or anti-tubulin antibodies. Fibronectin fluorescence (D and E) was measured in the presence or absence of TGF-β in 8 well replicates as follows. Cells were conditioned in serum-free DMEM for 48 hr prior to the addition of TGF-β. Images were acquired using a Cellomics platform with a mask shown in the schematic of (B). The mean of the total fluorescence intensity in each well was calculated from 300 cells per image field and up to 15 fields from each well for fibronectin. The fold change in fibronectin expression per acquired image (nuclei) is shown (Mean+/−SD).
Panel A1 is the control, Panel A2 is the TGF-β treated wells and Panel A3 is TGF-β plus PsA at 5 micromolar. Images were captured using the Cellomics imaging system.
Representative blots are shown with two exposures of fibronectin to account for strong signal intensity. n=3.
FIGS. 9A-9B: Increases in intracellular Ca^2+ prevent TGF-β-induced fibronectin expression. (A) WPMY-1 fibroblasts were treated with 2.5 μM thapsigargin±5 ng/ml TGF-β for 24 hours. (B) WPMY-1 fibroblasts were treated with 2.5-10 μM 3′,4′-dichlorobenzamil hydrochloride (DCB)±5 ng/ml TGF-β for 24 hours. Cell lysates were analyzed by western blot for fibronectin expression.
Because of the observed low nanomolar effective concentration of the cardiac glycosides, the inventors hypothesized that the cardiac glycosides may be acting by binding to their high affinity target, the Na^+/K^+ ATPase, and that action through the ATPase is the mechanism by which the cardiac glycosides are able to block TGF-β-induced fibronectin expression. It is well documented that inhibition of the Na^+/K^+ ATPase by digoxin leads to increases in intracellular Ca^2+ by preventing Ca^2+ efflux through the Na^+/Ca^2+ exchanger. In order to determine if increased intracellular Ca^2+ is sufficient to prevent TGF-β-induced fibronectin expression, the inventors utilized two compounds that increase intracellular Ca^2+ concentrations. 3′,4′-dichlorobenzamil hydrochloride (DCB) inhibits the Na^+/Ca^2+ exchanger, Na^+ transport, and sarcoplasmic reticulum Ca^2+ release channels. Thapsigargin inhibits the endoplasmic reticulum Ca^+ ATPase, preventing storage of Ca^2+ in the endoplasmic reticulurn, causing an accumulation in the cytoplasm. Cells were treated with 2.5-10 μM of DCB or thapsigargin±TGF-β for 24 hours.

WPMY-1 cells = assay: Viability / metabolic activity assay on WPMY-1 cells; details: WPMY-1, compound at its IC50, up to 48 hours, 1% FBS DMEM, vs DMSO control
Method: Metabolically viable cells (indicated by bar; left y-axis) are indicated by fluorescent intensity (560/590 nm).
Cardiac glycosides have been shown previously to inhibit cell growth in a variety of cell types, in order to determine whether cardiac glycosides inhibited TGE-β-induced fibronectin expression by affecting metabolic activity, viability assays were performed on WPMY-1 cells over 48 hours in 1% FBS DMEM.

[2] = system: activated fibroblast phenotype (fibronectin, YAP, TAZ, smooth muscle actin); assay: Western blot of activated fibroblast markers (FN, YAP, TAZ, SMA) in MRC-5 lung fibroblasts induced by growth factors; type: cell-based, human
Method: FIG. 10C: MRC-5 lung fibroblast cells were serum-starved 24 hours then treated with 10 ng/mL TGF-β in serum-free media for 24 hours with or without verteporfin at the indicated concentration. FN: fibronectin, YAP: yes-activated protein, TAZ: transcriptional coactivator with PDZ-binding motif, and SMA(ACTA2): smooth muscle actin. Representative western blot is shown (n=3).
FIG. […] T.F.8: combination TGF, FGF, IL8. […] FN: fibronectin, YAP: yes-activated protein, TAZ: transcriptional coactivator with PDZ-binding motif, and SMA(ACTA2): smooth muscle actin. Representative western blot is shown (n=2).

[3] = system: activated fibroblast phenotype; details: MRC-5 pre-activated with 10 ng/mL TGF-β 24 hours, then 24 hours treatment
Method: (§2) FIGS. 13A-13C: MRC-5 lung fibroblast cells were serum-starved 24 hours then treated with or without 10 ng/mL TGF-β for 24 hours (T-24 hr). […] FN: fibronectin, YAP: yes-activated protein, TAZ: transcriptional coactivator with PDZ-binding motif, and SMA(ACTA2): smooth muscle actin. Representative western blot is shown (n=2). […] Cells were fixed in −20C methanol for 15 minutes and immunolabeled for fibronectin. Cellomics arrayscan imaging was performed and staining intensity was quantified and analyzed for fibronectin expression on a per cell basis.
(§3) Turning now to FIGS. 13A-13E, in a clinical setting, it would be advantageous for the efficacy of the therapeutics that the activated fibroblasts be reversed to a quiescent state upon treatment. […] To test the combinations, the inventors obtained quantitative analysis of fibronectin staining in fibroblasts upon treatment with TGF-β in the presence or absence of drug combinations.

[4] = system: TGF-β-induced fibronectin; details: MRC-5, 10 ng/mL TGF-β, 24 hours, low concentrations alone or in combination
Method: as §2, §3

[5] = system: TGF-β-induced fibronectin; assay: High content imaging (Cellomics) screen for inhibitors of fibronectin induction by TGF-beta in WPMY-1 cells; type: cell-based, human
Method: as §1, with “The fold change in fibronectin expression per acquired image (nuclei) is shown (Mean+/−SD).” left out
FIGS. 4A-4H: Dose response for identified hits. As shown in the four panels of FIG. 4A, fibronectin fluorescence was measured from images acquired following a Cellomics scan using WPMY-1 cells with concentrations of hits over a range of 0-100 uM. […] Results were expressed as percent inhibition caused by cells treated with TGF-β alone and without testing compound, which was considered as 100%. […]
FIGS. 14-15 show Table I—Prestwick Library and Table II—NIH Library chemicals respectively. […] A “hit” was defined as a compound causing at least 50% reduction of “Mean_RingTotal Intensity”, which is the fluorescence intensity within the defined ring (see FIG. 2) surrounding nucleus of each cell, summed for 300 cells per image and 15 fields per image. The solvent, 0.1% Dimethyl Sulfoxide (DMSO), with and without TGF-beta served as an internal control on each plate to normalize day-to-day and plate-to-plate variation with DMSO alone as low fluorescence (0%) and TGF-β treated as maximal fluorescence (100%). […]

## C/C=C(/C)C(=O)O[C@H]1C(C)=C2[C@H]([C@@H]1OC(=O)CCCCCCC)[C@@](C)(OC(C)=O)C[C@H](OC(=O)CCC)[C@@]1(O)[C@H]2OC(=O)[C@@]1(C)O [thapsigargin]
[1]
  TGF-β-induced fibronectin expression, intracellular Ca2+ modulators (western blot): able to prevent TGF-β-induced fibronectin expression in a dose-dependent manner

## CC(=O)O[C@H]1C[C@H](O[C@H]2[C@@H](O)C[C@H](O[C@H]3[C@@H](O)C[C@H](O[C@H]4CC[C@@]5(C)[C@H](CC[C@@H]6[C@@H]5C[C@@H](O)[C@]5(C)[C@@H](C7=CC(=O)OC7)CC[C@]65O)C4)O[C@@H]3C)O[C@@H]2C)O[C@H](C)[C@H]1O[C@@H]1O[C@H](CO)[C@@H](O)[C@H](O)[C@H]1O [lanatoside C]
WPMY-1 cells
  cell viability / metabolic activity: no effect on cell viability

## Cc1cc(/C=C/c2ccc3cc(N(C)C)ccc3[n+]2C)c(C)n1-c1ccccc1 [pyrvinium]
[2]; MRC-5, 10 ng/mL TGF-β and 20 ng/ml FGF, 24 hours
  activated fibroblast phenotype induced by TGF-β and FGF (fibronectin, YAP, TAZ, smooth muscle actin): able to prevent the activated fibroblast phenotype
[2]; MRC-5, 10 ng/mL TGF-β and 20 ng/ml FGF, 24 hours, nintedanib 200 nM
  activated fibroblast phenotype upon TGF-β and FGF, compared with nintedanib: able to block the activated fibroblast phenotype better than nintedanib
[2]; MRC-5, 10 ng/mL TGF-β, 20 ng/mL FGF, 20 ng/mL IL-8, digoxin 250 nM, pyrvinium 500 nM vs pirfenidone 500 μm, nintedanib 250 nM
  fibroblast activation from a combination of growth factors (TGF, FGF, IL8): able to block fibroblast activation from a combination of growth factors better than pirfenidone or nintedanib
[3]
  reversal of activated fibroblast phenotype (fibronectin, TAZ, smooth muscle actin): revert fibroblasts to the quiescent state
[4]
  fibronectin staining intensity per cell (Cellomics arrayscan): the levels of fibronectin are reduced

## C[C@@H]1O[C@@H](O[C@@H]2C=C3CC[C@@H]4[C@H](CC[C@]5(C)[C@@H](c6ccc(=O)oc6)CC[C@]45O)[C@@]3(C)CC2)[C@H](O)[C@H](O)[C@H]1O [Proscillaridin A]
WPMY-1 cells
  cell viability / metabolic activity: toxic to cells
WPMY-1 cells; listed as proscillaridin A
  cell viability / metabolic activity: decreased metabolic activity
[1]; WPMY-1, TGF-β, dose range of PsA
  inhibition of fibronectin induction, western blot: inhibits induction of fibronectin even a low nanomolar concentrations
[5]; WPMY-1, 0-100 uM, TGF-β 24 hour
  IC50 / potency for inhibition of TGF-β-induced fibronectin (dose response): lowest IC50
[5]; WPMY-1, TGF-β plus PsA at 5 micromolar
  inhibition of fibronectin induction, Cellomics based image analysis: potent inhibitor of fibronectin induction

## verteporfin
[2]; MRC-5, 10 ng/mL TGF-β, 24 hours
  TAZ levels: not reduced
[2]; MRC-5, 10 ng/mL TGF-β, serum-free, 24 hours, dose escalation
  induction of fibronectin, YAP, TAZ, smooth muscle actin by TGF-β: represses TGF-β induced fibronectin and smooth muscle actin expression

## C[C@@H]1O[C@@H](O[C@H]2C[C@@H](O)[C@]3(CO)[C@H]4[C@H](O)C[C@]5(C)[C@@H](C6=CC(=O)OC6)CC[C@]5(O)[C@@H]4CC[C@]3(O)C2)[C@H](O)[C@H](O)[C@H]1O [ouabain]
WPMY-1 cells
  cell viability / metabolic activity: no effect on cell viability

## CC(=O)OCOC(=O)CN(CC(=O)OCOC(C)=O)c1ccccc1OCCOc1ccccc1N(CC(=O)OCOC(C)=O)CC(=O)OCOC(C)=O [BAPTA-AM, Glycine, N,N′-[1,2-ethanediylbis(oxy-2,1-phenylene)]bis[N-[2-[(acetyloxy)methoxy]-2-oxoethyl]]-, bis[(acetyloxy)methyl] ester]
[1]
  TGF-β-induced fibronectin expression, intracellular Ca2+ modulators (western blot): no effect on TGF-β-induced fibronectin expression

## Cl.NC(=NCc1ccc(Cl)c(Cl)c1)NC(=O)c1nc(Cl)c(N)nc1N [DCB, 3′,4′-dichlorobenzamil hydrochloride]
[1]
  TGF-β-induced fibronectin expression, intracellular Ca2+ modulators (western blot): able to prevent TGF-β-induced fibronectin expression in a dose-dependent manner

## COC(=O)c1ccc2c(c1)NC(=O)/C2=C(\Nc1ccc(N(C)C(=O)CN2CCN(C)CC2)cc1)c1ccccc1 [nintedanib]
[2]; MRC-5, 10 ng/mL FGF, nintedanib 200 nM, 24 hours
  FGF signaling (TAZ upregulation): blocks FGF signaling
[2]; MRC-5, 10 ng/mL TGF-β, nintedanib 200 nM, 24 hours
  induction of activated fibroblast markers by TGF-β: does not bock induction by TGF-β
